Experimental data published in paper PMC11364775, “Ion occupancy of the selectivity filter controls opening of a cytoplasmic gate in the K2P channel TALK-2” (Nature Communications, 2024).

What was measured:
[1] = biological target: T1, WT TALK-2 channels (Homo sapiens, UniProt Q96T54); experiment: Pore blocker inhibition (dose-response, residual currents) in inside-out patches at +40 mV; type: cell-based; set-up: expressed in transfected cells; host or cells: Xenopus laevis oocytes (cRNA injection), excised inside-out patches; details: for IC50: IC50 of TPenA inhibition
T1 sequence (Q96T54 1-332): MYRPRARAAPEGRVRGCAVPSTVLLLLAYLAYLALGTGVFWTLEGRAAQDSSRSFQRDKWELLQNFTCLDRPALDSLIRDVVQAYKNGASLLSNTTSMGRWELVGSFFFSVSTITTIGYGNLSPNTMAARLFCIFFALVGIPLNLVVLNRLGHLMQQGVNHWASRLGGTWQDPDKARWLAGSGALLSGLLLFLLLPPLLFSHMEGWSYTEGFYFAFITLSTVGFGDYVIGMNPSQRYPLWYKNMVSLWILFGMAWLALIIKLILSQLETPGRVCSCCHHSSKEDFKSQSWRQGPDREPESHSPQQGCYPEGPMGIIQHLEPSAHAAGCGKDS
Description: Data shown are the mean ± s.e.m and the number (n) of independent experiments and repeats of representative measurements with similar results is indicated in the figure.
Electrophysiological recordings: Excised patch measurements in inside-out configuration under voltage-clamp conditions were performed at room temperature (22 – 24 °C). Patch pipettes were made from thick-walled borosilicate glass GB 200TF-8P (Science Products, Germany), had resistances of 0.2–0.5 MΩ (tip diameter of 10 - 25 µm) and filled with a pipette solution (in mM): 120 KCl, 10 HEPES and 3.6 CaCl2 (pH 7.0 - 8.5 adjusted with KOH/HCl) or 120 KCl, 10 AMPSO and 3.6 CaCl2 (pH 9.0 - 10.5 adjusted with KOH/HCl). Intracellular bath solutions and compounds were applied to the cytoplasmic side of excised patches for the various K^+ channels via a gravity flow multi-barrel pipette system. Intracellular solution had the following composition (in mM): 120 KCl, 10 HEPES, 2 EGTA and 1 Pyrophosphate (pH adjusted with KOH/HCl). In other intracellular bath solutions, K^+ was replaced by Rb^+ (pH 7.4 adjusted with RbOH/HCl). Currents were recorded with an EPC10 amplifier (HEKA electronics, Germany) and sampled at 10 kHz or higher and filtered with 3 kHz (-3 dB) or higher as appropriate for sampling rate.
Data analysis and statistics were done using Fitmaster (HEKA electronics, version: v2x73.5, Germany), Microsoft Excel 2021 (Microsoft Corporation, USA), and Igor Pro 9 software (WaveMetrics Inc., USA). Recorded currents were analyzed from stable membrane patches at a voltage defined in the respective figure legend or with a voltage protocol as indicated in the respective figure. […] Percentage inhibition or residual currents upon blocker application for a ligand (drug or bioactive lipid) was calculated from stable currents of excised membrane patches using the following Eqs. 2 and 3:2 %inhibition=1−Iinhibited/Ibasal*100 3 Residual current=100−%inhibition where Iinhibited refers to the stable current level recorded in the presence of a given concentration of a drug or bioactive lipid and Ibasal to the measured current before ligand application.

[2] = biological target: T1, WT TALK-2 channels; experiment: Conductance-voltage (G-V) curves from tail currents, V1/2 (intracellular Rb+); type: cell-based; set-up: expressed in transfected cells; host or cells: Xenopus laevis oocytes (cRNA injection), excised inside-out patches; details: for Normalized current: TALK-2 WT + 1 mM TPenA
Description: The voltage-dependent activation mechanism of the SF gate in K2P channels allows to estimate the electrical work (ΔG = zFΔV1/2) required for pore opening by fitting the G–V curve to a Boltzmann equation. […] The open state represents the situation of both gates being simultaneously open but voltage can only exert force on the SF gate that functions as voltage sensor. […] We further tested whether mutations that open the lower gate (L262A and L264A) would affect the extracellular pH sensitivity. […] We further explored this concept of allosteric coupling using the mutations identified in the functional alanine screen of TM2 and TM4. […]
Conductance-voltage (G–V) relationships were determined from tail currents recorded at a holding potential (VH) of −80 mV after 300 ms depolarizing steps as indicated in the respective figure legend. Data were analyzed with a single Boltzmann fit following Eq. 6:6 GV=Imax/1+e^V−V1/2/slope+Ibase where V1/2 represents the voltage of half-maximal activation, s is the slope factor and Imax and Ibase represent the upper and lower asymptotes. Under appropriate experimental conditions, you can use slope to calculate the valence (charge) of the ion moving across the channel. Slope equals R * T/ z * F where R is the universal gas constant, T is temperature in K, F is the Faraday constant, and z is the valence.

CCCCC[N+](CCCCC)(CCCCC)CCCCC [TPenA, Tetra-pentyl-ammonium chloride]
IC50 ([1]; 0.2 mM 2-APB, n = 7, legend of Fig. 5e): 778 ± 116 µM
IC50 ([1]; 0.5 mM 2-APB, n = 5, legend of Fig. 5e): 215 ± 28 µM
IC50 ([1]; 1.0 mM 2-APB, n = 16, legend of Fig. 5e): 54 ± 10 µM
IC50 ([1]; pre-activated with 0.2 mM 2-APB, +40 mV): 1110 ± 411 µM
IC50 ([1]; pre-activated with 0.5 mM 2-APB, +40 mV): 225 ± 25 µM
Normalized currents ([1]; TALK-2 WT + 0.2 mM 2-APB, 1 µM TPenA): 1.00
Normalized currents ([1]; TALK-2 WT + 0.2 mM 2-APB, 10 µM TPenA): 0.87
Normalized currents ([1]; TALK-2 WT + 0.2 mM 2-APB, 100 µM TPenA): 0.81
Normalized currents ([1]; TALK-2 WT + 0.2 mM 2-APB, 1000 µM TPenA): 0.47
Normalized currents ([1]; TALK-2 WT + 0.2 mM 2-APB, 10000 µM TPenA): 0.15
Normalized currents ([1]; TALK-2 WT + 0.5 mM 2-APB, 1 µM TPenA): 1.02
Normalized currents ([1]; TALK-2 WT + 0.5 mM 2-APB, 10 µM TPenA): 0.89
Normalized currents ([1]; TALK-2 WT + 0.5 mM 2-APB, 100 µM TPenA): 0.63
Normalized currents ([1]; TALK-2 WT + 0.5 mM 2-APB, 1000 µM TPenA): 0.25
Normalized currents ([1]; TALK-2 WT + 0.5 mM 2-APB, 10000 µM TPenA): 0.08
Normalized currents ([1]; TALK-2 WT + 1.0 mM 2-APB, 1 µM TPenA): 1.00
Normalized currents ([1]; TALK-2 WT + 1.0 mM 2-APB, 10 µM TPenA): 0.87
Normalized currents ([1]; TALK-2 WT + 1.0 mM 2-APB, 100 µM TPenA): 0.33
Normalized currents ([1]; TALK-2 WT + 1.0 mM 2-APB, 1000 µM TPenA): 0.07
Normalized currents ([1]; TALK-2 WT + 1.0 mM 2-APB, 2000 µM TPenA): 0.06
Normalized currents ([1]; TALK-2 WT + 1.0 mM 2-APB, 5000 µM TPenA): 0.06
Normalized currents ([1]; TALK-2 WT + 1.0 mM 2-APB, 10000 µM TPenA): 0.01
Residual currents with 1 mM TPenA ([1]; TALK-2 WT unstimulated, +40 mV): 101.31%
Residual currents with 1 mM TPenA ([1]; TALK-2 WT, 0.2 mM 2-APB, +40 mV): 47.38%
Residual currents with 1 mM TPenA ([1]; TALK-2 WT, 0.5 mM 2-APB, +40 mV): 25.47%
Residual currents with 1 mM TPenA ([1]; TALK-2 WT, 1.0 mM 2-APB, +40 mV): 6.78%
Normalized currents ([1]; TALK-2 WT, 1 µM TPenA): 0.98
Normalized currents ([1]; TALK-2 WT, 10 µM TPenA): 0.97
Normalized currents ([1]; TALK-2 WT, 100 µM TPenA): 0.95
Normalized currents ([1]; TALK-2 WT, 1000 µM TPenA): 0.95
Normalized currents ([1]; TALK-2 WT, 5000 µM TPenA): 0.98
Normalized currents ([1]; TALK-2 WT, 10000 µM TPenA): 0.99
TPenA block in the basal state ([1]; basal state (low PO), 1.0 mM TPenA): hardly any TPenA block
leftward shift of the G-V curve ([2]; 1 mM TPenA, intracellular Rb+): 46.1 ± 4.9 mV
Normalized current ([2]; Voltage 0.000): 0.197
Normalized current ([2]; Voltage 0.005): 0.242
Normalized current ([2]; Voltage 0.010): 0.308
Normalized current ([2]; Voltage 0.015): 0.381
Normalized current ([2]; Voltage 0.020): 0.454
Normalized current ([2]; Voltage 0.025): 0.532
Normalized current ([2]; Voltage 0.030): 0.607
Normalized current ([2]; Voltage 0.035): 0.671
Normalized current ([2]; Voltage 0.040): 0.728
Normalized current ([2]; Voltage 0.045): 0.768
Normalized current ([2]; Voltage 0.050): 0.808
Normalized current ([2]; Voltage 0.055): 0.838
Normalized current ([2]; Voltage 0.060): 0.865
Normalized current ([2]; Voltage 0.065): 0.890
Normalized current ([2]; Voltage 0.070): 0.906
Normalized current ([2]; Voltage 0.075): 0.928
Normalized current ([2]; Voltage 0.080): 0.937
Normalized current ([2]; Voltage 0.085): 0.948
Normalized current ([2]; Voltage 0.090): 0.958
Normalized current ([2]; Voltage 0.095): 0.967
Normalized current ([2]; Voltage 0.100): 0.967
Normalized current ([2]; Voltage 0.105): 0.966
Normalized current ([2]; Voltage 0.110): 0.976
Normalized current ([2]; Voltage 0.115): 0.977
Normalized current ([2]; Voltage 0.120): 0.974
Normalized current ([2]; Voltage 0.125): 0.985
Normalized current ([2]; Voltage 0.130): 0.971
Normalized current ([2]; Voltage 0.135): 0.973
Normalized current ([2]; Voltage 0.140): 0.960
Normalized current ([2]; Voltage 0.145): 0.967
Normalized current ([2]; Voltage 0.150): 0.968
Normalized current ([2]; Voltage 0.155): 0.943
Normalized current ([2]; Voltage 0.160): 0.968
Normalized current ([2]; Voltage -0.005): 0.160
Normalized current ([2]; Voltage -0.010): 0.136
Normalized current ([2]; Voltage -0.015): 0.121
Normalized current ([2]; Voltage -0.020): 0.109
Normalized current ([2]; Voltage -0.025): 0.102
Normalized current ([2]; Voltage -0.030): 0.098
Normalized current ([2]; Voltage -0.035): 0.094
Normalized current ([2]; Voltage -0.040): 0.089
Normalized current ([2]; Voltage -0.045): 0.087
Normalized current ([2]; Voltage -0.050): 0.085
Normalized current ([2]; Voltage -0.055): 0.083
Normalized current ([2]; Voltage -0.060): 0.079
Normalized current ([2]; Voltage -0.065): 0.079
Normalized current ([2]; Voltage -0.070): 0.079
Normalized current ([2]; Voltage -0.075): 0.077
Normalized current ([2]; Voltage -0.080): 0.077
Normalized current ([2]; Voltage -0.085): 0.078
Normalized current ([2]; Voltage -0.090): 0.077
Normalized current ([2]; Voltage -0.095): 0.078
Normalized current ([2]; Voltage -0.100): 0.076
Normalized current ([2]; Voltage -0.105): 0.077
Normalized current ([2]; Voltage -0.110): 0.079
Normalized current ([2]; Voltage -0.115): 0.077
Normalized current ([2]; Voltage -0.120): 0.077
V1/2 ([2]; TALK-2 WT, 1 mM ligand): 25.5 mV
